In patent US11376247B2, “Tyrosine kinase inhibitors regenerate non-cancerous tissue after cancer therapy” (THE REGENTS OF THE UNIVERSITY OF COLORADO, A BODY CORPORATE, priority 2017, dated 2022):

Columns and labels:
salivary gland function = experiment: Saliva production in mice after single dose head and neck IR; format: in vivo
Experimental: The star indicates time of IR treatment. Three TKI dosing regimens were used, where times of delivery is indicated by the filled circles. Mice were treated with the specific TKI 1 hour prior to delivery of IR (pre), 1 hour prior and 3 hours post IR (pre/post), or 3 and 6 hours post (post/post). Saliva production was assayed prior to IR (day 0) and at 60 days after IR as described in Examples. […] Saliva was collected […]. as described in Examples. Salivary production (saliva weight/animal weight) for each cohort of mice was normalized against the saliva production for vehicle treated mice to generate the data shown.
(§1) The star indicates time of IR treatment; while TKI delivery is indicated by the filled circles and arrows indicate time of saliva collection. Mice were dosed 1 hour prior and 3 hours post IR (pre/post), or pre/post plus twice a week for the duration of the experiment. Saliva production was assayed prior to IR (day 0) and at 30, 60, 90, 120 and 150 days after IR. Mice received vehicle alone, 15 Gy IR plus vehicle, or IR plus dasatinib as indicated. Saliva production (saliva weight/animal weight) for each cohort of mice was normalized against the production for vehicle-treated mice to generate the data shown in FIG. 3B. […] Salivary glands from mice in each group (n=2) were removed, formalin fixed and paraffin embedded. Immunohistochemistry for AQPN5 and H&E staining was performed on salivary glands from each mouse. […] Images were captured using an Olympus BX51 scope and Olympus DP72 camera with a 20× objective. Solid arrows indicate acinar cells while dashed arrows mark salivary gland ducts.
The schematic in FIG. 2A depicts the 3 dosing regimens used for the experiments in FIG. 2.
(§2) C57Bl/6 and athymic nude female mice were purchased from Jackson Laboratories (Bar Harbor, Me., USA). For single dose IR, mice were anesthetized by intraperitoneal (i.p.) injection of […] Avertin (Sigma), immobilized within a 50-mL conical tube, and a single dose of IR (10 or 15 Gy) was delivered to the head and neck using a Caesium-137 source. For fractionated IR, mice received 5 fractions of 6 Gy (tumor study) or 4 Gy (saliva production) on 5 consecutive days.
Saliva was collected immediately following i.p. injection of 0.1 mg/kg carbachol (Sigma) in saline (0.9% NaCl). Whole saliva was collected for 3 mins from the lower cheek pouch using a suction device and expressed as mg (saliva)/g (mouse weight).

ParC5 cells = experiment: IR-induced apoptosis, caspase-3/7 activity in salivary gland acinar cells; format: cell-based, rat; settings: TKI pretreatment 30 min, 10 Gy IR, 18 hours after IR
Experimental: Whole cell lysates were resolved with SDS-PAGE and analyzed using phospho-specific antibodies that recognize PKC-delta pY64, pY155 or pT505. Membranes were stripped and probed for total PKC-delta and actin to determine loading. Each experiment was done a minimum of three times; representative immunoblots are shown. […] Caspase-3/7 activity was assayed as described in the Examples. Data shown is the average of triplicate samples from a representative experiment plus and minus the S.D. (error bars). The experiment was repeated three times, *=p<0.05 for caspase activity compared to cells expressing shScr. An immunoblot showing depletion of PKC-delta is shown below. […] The data are the average of triplicate measurements from a representative experiment plus the S.D. (error bars). Each experiment was repeated three times. *=p<0.05 for caspase activity compared to cells treated with IR alone. […] Inhibition of c-Src and c-Abl was determined by probing for their respective activation sites pY416 (c-Src) and pY412 (c-Abl). […]
Phosphorylation of PKC-delta at T505 is seen within 1 hour after IR, while phosphorylation at Y64 and Y155 are detectable by 2 hours post IR and continue to increase until at least 6 hours (FIG. 1A). […] Active caspase-3/7 was detected using the Caspase-3/7 Cellular Activity Assay Kit PLUS (Biomol, Farmingdale, N.Y.) according to the manufacturer's instructions.

[1] = system: PKC-delta, c-Src, c-Abl in ParC5 cells; experiment: Immunoblot for PKC-delta pY64/pY155, c-Src pY416 and c-Abl pY412 after H2O2; format: cell-based, rat; settings: TKI 30 min, then 5 mM H2O2 30 min
PKC-delta = settings: in response to DNA damaging agents; previously shown; cited from earlier work
[2] = system: FaDu derived xenograft tumors; experiment: FaDu flank xenograft tumor growth with fractionated IR; format: in vivo, nude mice
Experimental: as §2

SMG acinar cells = experiment: Salivary gland histology (H&E, AQPN5 immunohistochemistry) 150 days after IR; format: in vivo, mice; settings: 15 Gy IR, continuous dasatinib
Experimental: as §1, with “indicated.” for “indicated. Saliva production (saliva weight/animal weight) for each cohort of mice was normalized against the production for vehicle-treated mice to generate the data shown in FIG. 3B.”, “Solid arrows indicate acinar cells while dashed arrows mark salivary gland ducts.” left out
For tissue analysis, salivary glands were formalin fixed, paraffin embedded, and sectioned at […]. Tissue sections were stained with haematoxylin-eosin (H&E) and aquaporin 5 (AQPN5) was detected by immunohistochemistry (Abcam). Stained slides were archived and analyzed using the Aperio Digital Pathology System and ImageScope software (Leica Biosystems). For AQPN5, the number of positive stained pixels was quantified using the Positive Pixel algorithm in three representative sections, cut 50 micrometers apart, of both full submandibular salivary glands from two mice per treatment group, for a total of […] per group. […]

SMILES	saliva production, % of vehicle control (salivary gland function; IR plus imatinib, one dose prior to IR (pre), 60 days (FIG. 2E)) [%]	IR-induced apoptosis (caspase-3/7 activity) (ParC5 cells)	inhibition of Y155 versus Y64 phosphorylation of PKC-delta [1]	inhibition of c-Abl versus c-Src [1]	phosphorylation of PKC-delta at Y64 and Y155, nuclear translocation of PKC-delta, and apoptosis (PKC-delta)	tumor growth, TKI added to fractionated IR ([2]; 5 x 6 Gy IR, dasatinib 20 mg/kg or imatinib 50 mg/kg pre/post each fraction)	tumor growth, TKI alone compared to respective controls ([2]; dasatinib 20 mg/kg or imatinib 50 mg/kg alone, no IR)	saliva production, % of vehicle treated controls (salivary gland function; 15 Gy IR, dasatinib 20 mg/kg pre/post, 60 days post IR (FIG. 2B)) [%]	saliva production, % of vehicle treated mice (salivary gland function; 15 Gy IR, dasatinib pre/post only, 30 and 60 days (FIG. 3B)) [%]	saliva production, % of vehicle treated controls (salivary gland function; 15 Gy IR, dasatinib pre/post plus twice a week (continual), 90 days) [%]	saliva production, % of vehicle treated controls (salivary gland function; 15 Gy IR, dasatinib pre/post plus twice a week (continual), 120 days) [%]	saliva production, % of vehicle treated controls (salivary gland function; 15 Gy IR, dasatinib pre/post plus twice a week (continual), 150 days) [%]	protection of salivary gland function compared to vehicle only treated mice (salivary gland function; IR plus dasatinib, all 3 protocols (pre, pre/post, post/post), 60 days (FIG. 2D)) [%]	AQPN5 staining in the SMGs, % of vehicle treated mice (SMG acinar cells) [%]
Cc1ccc(NC(=O)c2ccc(CN3CCN(C)CC3)cc2)cc1Nc1nccc(-c2cccnc2)n1 [imatinib]	63	inhibits IR-induced apoptosis	slightly more potent inhibitors of Y155 phosphorylation than Y64 phosphorylation	more potent inhibition of c-Abl than c-Src	block	no effect on tumor growth	trend towards reduced tumor growth	–	–	–	–	–	–	–
Cc1nc(Nc2ncc(C(=O)Nc3c(C)cccc3Cl)s2)cc(N2CCN(CCO)CC2)n1 [dasatinib]	–	–	–	–	–	–	–	65	70	74	69	82	~100	93
